Measured values taken from paper PMC9457815 (Molecules, 2022).
pEC50, pIC50: −log10 of the molar value.

Tests used:
THP-1 cells = assay: Cytotoxicity assay (Cell-Titer GLO, cellular ATP levels) on THP-1 cells; type: cell-based, human
Protocol: (§1) Briefly, 7.5 × 10^3 Huh7 cells/well or 2 × 10^4 THP-1 cells/well were plated in black 96-well plates and incubated at 37 °C for 24 h. […] Each dilution was added to the cell plates to obtain final concentrations of 6.25 µM to 200 µM for alkaloids and DMSO, and 0.39 µM to 50 µM for lycorine. […] The plates were then incubated at 37 °C and 5% CO2 for 72 h. Cell-Titer GLO reagent was added to the plates previously equilibrated to room temperature. The plates were then mixed on an orbital shaker for 2 min and incubated for 10 min at room temperature. The luminescence signal was measured with a microplate spectrophotometer (Synergy H1, Biotek, Dorval, QC, Canada). Viability percentages were obtained by calculating the ratio of the signal corresponding to each alkaloid concentration to the signal of the equimolar DMSO control. All experiments were performed at least twice. Median cytotoxic concentrations (CC50) were calculated using QuestGraph IC50 calculator software (MLA Quest Graph™ IC50 Calculator, AAT Bioquest, Inc., Sunnyvale, CA, USA).

[1] = as above; type: cell-based, human; details: human; THP-1 cells, 72 h, ATP levels
Protocol: as §1

[2] = Cytotoxicity assay (Cell-Titer GLO, cellular ATP levels) on Huh7 cells; type: cell-based, human; details: human; Huh7 cells, 72 h, ATP levels
Protocol: as §1

Huh7 cells = assay: as above; type: cell-based, human; details: for cytotoxicity to Huh7 cells: tested concentrations (lycorine: below 50 µM); for cell death, Huh7 cells: 200 µM
Protocol: as §1

DENVGFP = assay: Antiviral assay, propagative DENVGFP vector in Huh7 cells, flow cytometry; type: cell-based, dengue virus (serotype 2); details: Dengue virus, Huh-7, 72 h, read-out: EC50 DENV
Protocol: (§2) The plasmid used to obtain the DENVGFP vector (pFK-DVs-G2A) was provided by Ralf Bartenschlager (Heidelberg University, Heidelberg, Germany) and Laurent Chatel-Chaix (Institut National de la Recherche Scientifique, Laval, QC, Canada). The 2 plasmids used to obtain the HIV-1GFP vector were PMD2.G and pNL4-3-GFPΔEnvΔNef. For DENVGFP, viral titer was measured using a plaque assay in Vero cells, as described in [53]. For HIV-1GFP, the viral titer was obtained by measuring the infectivity of serially diluted vectors in CRFK cells, as described in [54].
(§3) Briefly, 7.5 × 10^3 Huh7 cells/well or 2 × 10^4 THP-1 cells/well were plated in 96-well plates at 37 °C for 24 h. […] Each dilution was added to the cell plates to obtain final concentrations of 1.56 µM to 200 µM for alkaloids and matched concentrations of DMSO, and 0.05 µM to 6.4 µM for lycorine or 0.078 µM to 10 µM for raltegravir. Lycorine and raltegravir were used as DENV and HIV-1 inhibitor controls, respectively. DENVGFP and HIV-1GFP were then added at multiplicities of infection (MOIs) of 0.025 and 0.1, respectively. Plates were placed in an incubator at 37 °C and 5% CO2 for 72 h. Afterward, the cells were fixed in 3.7% formaldehyde and the percentage of infection was measured using flow cytometry with an FC500 MPL cytometer (Beckman Coulter, Inc., Brea, CA, USA). Data analysis was performed using Flowjo software (BD, FlowJo LLC, Ashland, OR, USA). All experiments were performed at least twice. EC50 values were calculated using QuestGraph IC50 calculator software (MLA Quest Graph™ IC50 Calculator. AAT Bioquest, Inc. https://www.aatbio.com/tools/ic50-calculator (accessed on 1 July 2022)).

BuChE = molecular target: T1, BuChE (Equus caballus, UniProt P81908); assay: biochemical; set-up: species or system equine; details: for IC50 BuChE / pIC50: nid = no inhibition detected at 1 mM
T1 construct: purchased Sigma-Aldrich
T1 sequence (P81908 whole entry): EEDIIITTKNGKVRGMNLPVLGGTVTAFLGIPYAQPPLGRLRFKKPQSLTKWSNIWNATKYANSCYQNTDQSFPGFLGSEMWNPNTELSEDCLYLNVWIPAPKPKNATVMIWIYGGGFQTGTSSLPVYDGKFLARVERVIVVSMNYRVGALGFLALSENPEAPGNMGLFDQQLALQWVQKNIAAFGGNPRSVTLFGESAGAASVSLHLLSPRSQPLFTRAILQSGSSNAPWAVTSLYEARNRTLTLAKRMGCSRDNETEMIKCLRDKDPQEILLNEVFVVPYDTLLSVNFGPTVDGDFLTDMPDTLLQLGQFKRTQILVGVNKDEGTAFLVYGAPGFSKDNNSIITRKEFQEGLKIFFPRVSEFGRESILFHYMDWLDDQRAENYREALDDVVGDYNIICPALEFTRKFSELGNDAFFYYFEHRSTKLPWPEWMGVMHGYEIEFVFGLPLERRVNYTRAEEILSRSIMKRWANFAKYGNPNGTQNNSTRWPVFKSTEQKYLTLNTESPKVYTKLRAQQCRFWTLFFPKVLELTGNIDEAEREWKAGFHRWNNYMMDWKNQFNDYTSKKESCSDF
Protocol: (§4) Pharmacological properties specific to AD were tested first on AChEs (electric eel) according to the kit (ab138871, Abcam) that provides a colorimetric measure of enzyme activity and inhibition. Briefly, the reaction was performed in a final volume of 100 μL in 96-well microplates. […] For this, DMSO-dissolved test compounds were added to a final concentration of 1 mM (1% DMSO) in duplicates. Next, a 5 μL reaction mixture containing equal amounts of acetylthiocholine (20X) and DTNB (20X) was added to each well. Ultimately, the enzyme solution was added to a final concentration of 0.25 U/mL and the absorbance was measured at 412 nm in kinetic mode for 10 min using a microplate reader (Synergy H1, Biotek, Dorval, QC, Canada). The same procedure was utilized for the BuChE (equine, Sigma-Aldrich) activity test, except that the enzyme concentration was 2 U/mL per reaction. DTNB (Bis(3-carboxy-4-nitrophenyl) disulfide, Ellman’s Reagent), acetylthiocholine iodide, and butyrylthiocholine iodide were purchased from Sigma-Aldrich (Oakville, ON, Canada). […] Experiments were performed at least twice. Inhibition was calculated as follows:I = 100 × (1 − Δi/Δe) where Δi is the difference in the absorbance between two time points in the presence of the inhibitor, and Δe is the difference in the absorbance using two time points in presence of DMSO or an appropriate solvent.

AChE = molecular target: T2, AChE (Electrophorus electricus, UniProt O42275); assay: biochemical; type: biochemical, electric eel; details: substrate ATCh; nid = no inhibition detected at 1 mM
T2 construct: purchased Abcam ab138871
T2 sequence (O42275 24-633): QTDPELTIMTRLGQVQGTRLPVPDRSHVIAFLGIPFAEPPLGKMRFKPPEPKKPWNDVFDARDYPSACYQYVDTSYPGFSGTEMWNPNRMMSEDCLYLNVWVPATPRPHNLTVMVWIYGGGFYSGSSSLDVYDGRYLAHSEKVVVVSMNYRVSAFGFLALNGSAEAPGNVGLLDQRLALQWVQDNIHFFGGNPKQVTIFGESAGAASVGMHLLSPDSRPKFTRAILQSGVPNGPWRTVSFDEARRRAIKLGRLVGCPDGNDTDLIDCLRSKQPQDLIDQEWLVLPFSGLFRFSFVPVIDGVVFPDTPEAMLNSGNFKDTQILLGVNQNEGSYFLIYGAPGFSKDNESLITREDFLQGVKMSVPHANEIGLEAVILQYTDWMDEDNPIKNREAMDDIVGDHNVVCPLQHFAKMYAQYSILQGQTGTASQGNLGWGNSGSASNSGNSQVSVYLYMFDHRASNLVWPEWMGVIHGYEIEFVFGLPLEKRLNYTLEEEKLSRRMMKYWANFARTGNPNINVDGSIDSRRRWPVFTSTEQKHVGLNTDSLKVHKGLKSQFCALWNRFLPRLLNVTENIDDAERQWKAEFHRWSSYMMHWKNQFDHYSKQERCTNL
Protocol: as §4

HIV-1GFP = assay: microbe, parasite or virus in culture; type: cell-based, human immunodeficiency virus (HIV)-1; details: for pEC50: Human immunodeficiency virus 1, THP-1, 72 h, read-out: EC50 HIV-1; for inhibition at 200 µM: Human immunodeficiency virus 1, THP-1, read-out: inhibition of HIV-1 infection
Protocol: as §2, §3

POP = molecular target: T3, POP (Homo sapiens, UniProt P48147); assay: Prolyloligopeptidase (POP) inhibition assay, fluorogenic kit; type: biochemical; details: IC50 POP, substrate DPP (Ala-Pro-AMC dipeptide); nid = no inhibition detected at 1 mM
T3 construct: purchased BPS Bioscience Inc
T3 sequence (P48147 1-710): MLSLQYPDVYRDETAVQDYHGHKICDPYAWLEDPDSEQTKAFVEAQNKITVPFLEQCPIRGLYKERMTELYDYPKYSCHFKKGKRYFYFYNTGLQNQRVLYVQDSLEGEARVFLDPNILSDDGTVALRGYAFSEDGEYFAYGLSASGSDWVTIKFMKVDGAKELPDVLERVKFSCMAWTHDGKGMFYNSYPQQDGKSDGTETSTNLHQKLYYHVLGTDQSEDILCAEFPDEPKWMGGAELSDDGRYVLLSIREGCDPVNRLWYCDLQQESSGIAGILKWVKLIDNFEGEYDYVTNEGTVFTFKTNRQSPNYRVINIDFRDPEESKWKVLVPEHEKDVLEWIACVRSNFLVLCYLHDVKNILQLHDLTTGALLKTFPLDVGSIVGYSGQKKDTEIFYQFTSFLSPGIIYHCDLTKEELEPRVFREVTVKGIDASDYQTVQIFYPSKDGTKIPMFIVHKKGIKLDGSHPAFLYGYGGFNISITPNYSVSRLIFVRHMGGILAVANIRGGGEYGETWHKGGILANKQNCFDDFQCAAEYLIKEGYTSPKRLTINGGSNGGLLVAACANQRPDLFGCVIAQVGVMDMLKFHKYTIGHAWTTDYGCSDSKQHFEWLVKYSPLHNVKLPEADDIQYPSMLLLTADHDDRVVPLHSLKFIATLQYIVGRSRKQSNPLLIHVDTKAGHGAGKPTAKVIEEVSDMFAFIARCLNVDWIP
Protocol: POP enzyme activity was measured using the Fluorogenic POP Assay Kit (BPS Bioscience Inc., San Diego, CA, USA). The reaction was carried out in a final volume of 50 μL in a low-binding NUNC microtiter plate. All compounds were tested at a final concentration of 250 μM in duplicate. A DPP substrate was added to a final concentration of 2.5 μM and the POP enzyme solution was subsequently added to a final concentration of 1 ng/μL. Optical densities at 440 nm were recorded using a microplate reader (Synergy H1, Biotek, QC, Canada).

[3] = tested concentrations (lycorine: below 50 µM)
[4] = 200 µM, killing a majority of the cells

O[C@H]1[C@H]2c3cc4c(cc3CN3CCC(=C[C@@H]1O)[C@H]23)OCO4 [Lycorine, reference compound]
cytotoxicity to THP-1 cells (THP-1 cells; [3]): cytotoxic
CC50 at 72 h [1]: 10.7 µM
CC50 at 72 h [2]: 17.4 µM
cytotoxicity to Huh7 cells (Huh7 cells): cytotoxic
pEC50 (DENVGFP): 7.05

NCCc1ccc(O)cc1 [Tyramine]
IC50 BuChE (BuChE; substrate ATCh): nid
IC50 BuChE (BuChE; substrate BuTCh): nid
cytotoxicity to THP-1 cells (THP-1 cells; [3]): not cytotoxic
CC50 at 72 h [1]: > 200 µM
IC50 AChE (AChE): nid
CC50 at 72 h [2]: > 200 µM
cytotoxicity to Huh7 cells (Huh7 cells): not cytotoxic
pEC50 (HIV-1GFP): < 3.70
pEC50 (DENVGFP): < 3.70

Cc1nnc(C(=O)NC(C)(C)c2nc(C(=O)NCc3ccc(F)cc3)c(O)c(=O)n2C)o1 [Raltegravir, reference compound]
CC50 at 72 h [1]: > 10 µM
pEC50 (HIV-1GFP): 7.01

COc1ccc(CNCCc2ccc(O)cc2)cc1O [4′-O-methylnorbelladine]
pIC50 (BuChE; substrate ATCh): 4.37
pIC50 (BuChE; substrate BuTCh): 4.04
CC50 at 72 h [1]: > 200 µM
IC50 AChE (AChE): nid
CC50 at 72 h [2]: > 200 µM
pEC50 (HIV-1GFP): 3.97
pEC50 (DENVGFP): 4.39

COc1cc(/C=N/CCc2ccc(O)cc2)ccc1O [3′-O-methylnorcraugsodine]
IC50 BuChE (BuChE; substrate ATCh): nid
IC50 BuChE (BuChE; substrate BuTCh): nid
CC50 at 72 h [1]: > 200 µM
IC50 AChE (AChE): nid
CC50 at 72 h [2]: > 200 µM
cytotoxicity to Huh7 cells (Huh7 cells): weakly cytotoxic
pEC50 (HIV-1GFP): 3.97
inhibition at 200 µM (HIV-1GFP): 94 to 99%
pIC50 (POP): 2.94
pEC50 (DENVGFP): 3.75

O=Cc1ccc(O)c(O)c1 [3,4-DHBA, 3,4-dihydroxybenzaldehyde]
IC50 BuChE (BuChE; substrate ATCh): nid
IC50 BuChE (BuChE; substrate BuTCh): nid
cytotoxicity to THP-1 cells (THP-1 cells; 100 µM, killing a majority of the cells): highly cytotoxic
CC50 at 72 h [1]: 31.7 µM
IC50 AChE (AChE): nid
CC50 at 72 h [2]: 173 µM
cell death, Huh7 cells (Huh7 cells): 50%
pEC50 (HIV-1GFP): 4.29
inhibition at 200 µM (HIV-1GFP): 94 to 99%
pEC50 (DENVGFP): 4.62

COc1ccc(CNCCc2ccc(O)cc2)cc1OC [3′,4′-O-dimethylnorbelladine]
loss of BuChE inhibition compared with norbelladine (BuChE): 3 fold
pIC50 (BuChE; substrate ATCh): 4.06
pIC50 (BuChE; substrate BuTCh): 4.06
CC50 at 72 h [1]: > 200 µM
pIC50 (AChE): 3.50
CC50 at 72 h [2]: 131 µM
cell death, Huh7 cells (Huh7 cells): 50%
pEC50 (HIV-1GFP): 4.01
pEC50 (DENVGFP): 4.56

COc1ccc(/C=N/CCc2ccc(O)cc2)cc1O [4′-O-methylnorcraugsodine]
IC50 BuChE (BuChE; substrate ATCh): nid
IC50 BuChE (BuChE; substrate BuTCh): nid
CC50 at 72 h [1]: > 200 µM
IC50 AChE (AChE): nid
CC50 at 72 h [2]: > 200 µM
pEC50 (HIV-1GFP): < 3.70
pEC50 (DENVGFP): < 3.70

CCN(C)C(=O)Oc1cccc([C@H](C)N(C)C)c1 [rivastigamine, Rivastigmine, reference compound]
inhibition at 2000 µM (BuChE; read-out: BuChE inhibition (positive control)): 100%

COc1ccc(/C=N/CCc2ccc(O)cc2)cc1OC [3′,4′-O-dimethylnorcraugsodine]
IC50 BuChE (BuChE; substrate ATCh): nid
IC50 BuChE (BuChE; substrate BuTCh): nid
CC50 at 72 h [1]: > 200 µM
IC50 AChE (AChE): nid
CC50 at 72 h [2]: > 200 µM
pEC50 (HIV-1GFP): < 3.70
pEC50 (DENVGFP): < 3.70

COc1cc(CNCCc2ccc(O)cc2)ccc1O [3′-O-methylnorbelladine]
pIC50 (BuChE; substrate ATCh): 4.40
pIC50 (BuChE; substrate BuTCh): 4.23
cytotoxicity to THP-1 cells (THP-1 cells; [4]): highly cytotoxic
CC50 at 72 h [1]: 99 µM
IC50 AChE (AChE): nid
CC50 at 72 h [2]: > 200 µM
pEC50 (HIV-1GFP): 3.87
pIC50 (POP): 2.91
pEC50 (DENVGFP): 4.35

Oc1ccc(CCNCc2ccc(O)c(O)c2)cc1 [Norbelladine]
pIC50 (BuChE; substrate ATCh): 4.48
pIC50 (BuChE; substrate BuTCh): 4.58
cytotoxicity to THP-1 cells (THP-1 cells; [4]): highly cytotoxic
CC50 at 72 h [1]: 82.2 µM
IC50 AChE (AChE): nid
CC50 at 72 h [2]: 72.6 µM
cell death, Huh7 cells (Huh7 cells): 50%
pEC50 (HIV-1GFP): 4.30
inhibition at 200 µM (HIV-1GFP): 94 to 99%
pEC50 (DENVGFP): 4.30
